Results as given in patent US6187800A, “Method for the prevention and treatment of mastitis” (Novartis Animal Health U.S., Inc., priority 1997, dated 2001).

Tests used:
[1] = system: pathogens causing bovine mastitis; experiment: Activity against mastitis pathogens (general statement); assay type: cell-based
[2] = Hydrophobicity and water solubility
[3] = system: Staphylococcus aureus V557; experiment: MIC, agar well diffusion method; assay type: cell-based; settings: 37° C. overnight
Experimental: (§1) The minimal inhibitory concentrations (MIC) of micrococcin P1 against a panel of test organisms were determined using an agar well diffusion method. Agar plates were overlaid with soft agar seeded with the test organism. When the agar had solidified wells of 4 mm diameter were cut in the agar. 50 μl of a series of two fold dilutions of the peptide in citrate buffer pH4 were applied to the wells and the plates were kept at 4° C. for two hours prior to incubation at 37° C. overnight. The MIC was determined as the lowest concentration of peptide giving a clear zone of lysis around the well. Indicator strains were grown in Tryptose broth (Difco). M17 medium (Merck) was used for plates and soft agar with the following exceptions. For Pasteurella haemolytica, tryptose supplemented with 5% of toetal calf's serum was used. For Leuconostoc mesenteroides, plate count agar--Merck--, +15% saccharose was used, and for Bacillus cereus plate count agar +0.2% potato starch-Sigma 2004-) was used.

Micrococcus luteus = experiment: MIC, agar well diffusion method; assay type: cell-based; settings: 37° C. overnight
Experimental: as §1

Bacillus cereus = experiment: MIC, agar well diffusion method; assay type: cell-based; settings: plate count agar +0.2% potato starch
Experimental: as §1

[4] = system: Leuconostoc mesenteroides; experiment: MIC, agar well diffusion method; assay type: cell-based; settings: plate count agar +15% saccharose
Experimental: as §1

E.coli = experiment: MIC, agar well diffusion method; assay type: cell-based; settings: 37° C. overnight
Experimental: as §1

Listeria innocua = experiment: MIC, agar well diffusion method; assay type: cell-based; settings: 37° C. overnight
Experimental: as §1

Pasteurella haemolytica = experiment: MIC, agar well diffusion method; assay type: cell-based; settings: tryptose + 5% foetal calf's serum
Experimental: as §1

Streptococcus faecalis = experiment: MIC, agar well diffusion method; assay type: cell-based; settings: 37° C. overnight
Experimental: as §1

[5] = system: Staphylococcus aureus Newbould; experiment: MIC, agar well diffusion method; assay type: cell-based; settings: 37° C. overnight
Experimental: as §1

Streptococcus uberis = experiment: MIC, agar well diffusion method; assay type: cell-based; settings: 37° C. overnight
Experimental: as §1

Staphylococcus aureus = experiment: Efficacy in subclinical bovine mastitis (experimentally infected quarters, intramammary treatment); assay type: in vivo, cows (bovine); settings: n = 9
Source text: A dairy herd is maintained to supply candidate cows for enrollment in trials. Cows are bought from local cattle dealers. These cows should have a minimal milk production of 15 l/day. Two milk samples are taken one day apart from all quarters for bacteriological examination. No cows from which mastitis pathogens can be recovered are entered into the tests. Non-infected cows are selected based on non recovery of Staphylococcus aureus from two milk samples taken one day apart from all quarters. Then, 3 quarters are inoculated via the intramammary route using a suspension of Staphylococcus aureus. The 4th quarter serves as a control for the milking hygiene routines. During the two to four weeks after inoculation, milk samples are taken from all quarters, at least 3 times. These samples are cultured, and if Staphylococcus aureus is recovered from at least two of them, the quarter is considered infected.
Treatments are assigned randomly to infected quarters and injected via the intramammary route. Milk samples are taken daily until a minimum of 14 days after the last treatment. A quarter is considered to be cured if milk samples from that quarter become negative (i.e., no Staphylococcus aureus can be recovered) within 7 days after the last treatment and stay negative throughout the following 14 day sampling period.
This experimental model is used to have a fixed framework on which to evaluate treatments. To work with Staphylococcus aureus has the advantage that it is the most difficult Gram positive bacterium to treat and one of the most important bacteria causing bovine mastitis. Therefore, cure rates should be expected to be lower than for other Gram positive bacteria, such as Streptococci and coagulase-negative Staphylococci.
The results presented in Table 2 show the percentage of quarters positive for Staphylococcus aureus (i.e., quarters from which Staphylococcus aureus can be recovered) during and after treatment with 3 doses of either placebo, 2 mg micrococcin P1, or 300 mg ampiclox at 12 hour intervals, or 3 doses with 4 mg micrococcin P1 at 48 hour intervals.

[6] = system: Streptococcus thermophilus; experiment: Acidification of milk from treated cows by lactic fermenting bacteria; assay type: cell-based; settings: 3 doses at 12 h
Source text: (§2) Acidification is the first and most important step in the manufacturing processes when milk is fermented. If acidification proceeds normally then it is very likely that all other steps will be normal. Therefore one can investigate the effect of different concentrations of micrococcin P1 on the kinetics of acidification of milk by lactic fermenting bacteria.
(§3) Cows that are free from infection with mastitis pathogens, based on bacteriological culture of milk, are enrolled in these trials. Identical treatments are administered to all 4 quarters of an individual cow. Milk from evening milkings is refrigerated at 4° C. overnight to be tested the following morning. Samples of 500 ml are pasteurized by heating to 80° C. in a waterbath and then cooled to room temperature.
(§4) Lyophylised cultures as used in commercial conditions are obtained from Rudolf Wittwer, CH-5002 Rombach, Aarau, Switzerland. These cultures are reconstituted according to manufacturers recommendations and reactivated by passage three times in sterile skimmed milk. Each passage is incubated for 16 to 18 hours at the optimum temperature for the said bacterial strain.
(§5) The culture obtained after the third passage is diluted to 2% with whole sterile (UHT) milk, aliquotted in 10 ml tubes and frozen at -20° C. for use in experiments.
(§6) The stock cultures prepared above are thawed at 40° C. then incubated overnight at 37° C. and used to inoculate test samples. The test samples are inoculated with 2% by volume of the experimental culture of the bacterial strain under test. The samples are then mixed and incubated for 24 hours at the optimal temperature for the particular bacterial strain under evaluation. The pH is measured each two hours during an eight hour period and again at 24 hours. The rate of acidification of milk containing different concentrations of active micrococcin P1 can then be compared to the negative controls.
(§7) The results given in tables 4 and 5 below have been obtained from cows receiving various amounts of micrococcin P1 on three occasions, at 12 hour intervals.

Lactobacillus bulgaricus = experiment: as above; assay type: cell-based; settings: 3 doses at 12 h
Source text: as §2, §3, §4, §5, §6, §7

C/C=C(\NC(=O)c1csc(-c2csc(-c3ccc4c(n3)-c3csc(n3)[C@H]([C@@H](C)O)NC(=O)c3csc(n3)[C@H](C(C)C)NC(=O)c3csc(n3)/C(=C/C)NC(=O)[C@H]([C@@H](C)O)NC(=O)c3csc-4n3)n2)n1)C(=O)NCC(C)=O [P2, micrococcin P2]
activity against pathogens causing bovine mastitis [1]: highly active against pathogens causing bovine mastitis | hydrophobicity [2]: highly hydrophobic | solubility in water [2]: poorly soluble in water

micrococcin P1
MIC [3]: 1.91 mg/L | MIC (Micrococcus luteus): 0.015 mg/L | MIC (Bacillus cereus): 0.24 mg/L | MIC [4]: > 1000 mg/L | MIC (E.coli): > 1000 mg/L | MIC (Listeria innocua): 1.95 mg/L | MIC (Pasteurella haemolytica): > 1000 mg/L | MIC (Streptococcus faecalis): 1.98 mg/L | MIC [5]: 0.24 mg/L | MIC (Streptococcus uberis): 1.49 mg/L | activity against pathogens causing bovine mastitis [1]: highly active against pathogens causing bovine mastitis | % of quarters positive (Staphylococcus aureus; 3 × 2 mg each 12 hours, day 0 after start of treatment): 100.0% | % of quarters positive (Staphylococcus aureus; 3 × 2 mg each 12 hours, day 1 after start of treatment): 62.5% | % of quarters positive (Staphylococcus aureus; 3 × 2 mg each 12 hours, day 2 after start of treatment): 12.5% | % of quarters positive (Staphylococcus aureus; 3 × 2 mg each 12 hours, day 3 after start of treatment): 50.0% | % of quarters positive (Staphylococcus aureus; 3 × 2 mg each 12 hours, day 4 after start of treatment): 50.0% | % of quarters positive (Staphylococcus aureus; 3 × 2 mg each 12 hours, day 5 after start of treatment): 62.5% | % of quarters positive (Staphylococcus aureus; 3 × 2 mg each 12 hours, day 7 after start of treatment): 62.5% | % of quarters positive (Staphylococcus aureus; 3 × 2 mg each 12 hours, day 8 after start of treatment): 75.0% | % of quarters positive (Staphylococcus aureus; 3 × 2 mg each 12 hours, day 9 after start of treatment): 75.0% | % of quarters positive (Staphylococcus aureus; 3 × 2 mg each 12 hours, day 10 after start of treatment): 75.0% | % of quarters positive (Staphylococcus aureus; 3 × 2 mg each 12 hours, day 11 after start of treatment): 87.5% | % of quarters positive (Staphylococcus aureus; 3 × 2 mg each 12 hours, day 12 after start of treatment): 75.0% | % of quarters positive (Staphylococcus aureus; 3 × 2 mg each 12 hours, day 14 after start of treatment): 87.5% | % of quarters positive (Staphylococcus aureus; 3 × 2 mg each 12 hours, day 15 after start of treatment): 62.5% | % of quarters positive (Staphylococcus aureus; 3 × 2 mg each 12 hours, day 16 after start of treatment): 75.0% | % of quarters positive (Staphylococcus aureus; 3 × 4 mg each 48 hours, day 0 after start of treatment): 100% | % of quarters positive (Staphylococcus aureus; 3 × 4 mg each 48 hours, day 1 after start of treatment): 22% | % of quarters positive (Staphylococcus aureus; 3 × 4 mg each 48 hours, day 2 after start of treatment): 22% | % of quarters positive (Staphylococcus aureus; 3 × 4 mg each 48 hours, day 3 after start of treatment): 11% | % of quarters positive (Staphylococcus aureus; 3 × 4 mg each 48 hours, day 4 after start of treatment): 11% | % of quarters positive (Staphylococcus aureus; 3 × 4 mg each 48 hours, day 5 after start of treatment): 0% | % of quarters positive (Staphylococcus aureus; 3 × 4 mg each 48 hours, day 7 after start of treatment): 0% | % of quarters positive (Staphylococcus aureus; 3 × 4 mg each 48 hours, day 8 after start of treatment): 22% | % of quarters positive (Staphylococcus aureus; 3 × 4 mg each 48 hours, day 9 after start of treatment): 22% | % of quarters positive (Staphylococcus aureus; 3 × 4 mg each 48 hours, day 10 after start of treatment): 22% | % of quarters positive (Staphylococcus aureus; 3 × 4 mg each 48 hours, day 11 after start of treatment): 22% | % of quarters positive (Staphylococcus aureus; 3 × 4 mg each 48 hours, day 12 after start of treatment): 22% | % of quarters positive (Staphylococcus aureus; 3 × 4 mg each 48 hours, day 14 after start of treatment): 44% | % of quarters positive (Staphylococcus aureus; 3 × 4 mg each 48 hours, day 15 after start of treatment): 44% | % of quarters positive (Staphylococcus aureus; 3 × 4 mg each 48 hours, day 16 after start of treatment): 22% | pH (acidification of milk) ([6]; 0.1 mg, 0 hours of growth): 6.60 | pH (acidification of milk) ([6]; 0.1 mg, 2 hours of growth): 6.03 | pH (acidification of milk) ([6]; 0.1 mg, 4 hours of growth): 4.47 | pH (acidification of milk) ([6]; 0.1 mg, 6 hours of growth): 4.08 | pH (acidification of milk) ([6]; 0.1 mg, 8 hours of growth): 3.94 | pH (acidification of milk) ([6]; 0.1 mg, 24 hours of growth): 3.52 | pH (acidification of milk) ([6]; 0.5 mg, 0 hours of growth): 6.61 | pH (acidification of milk) ([6]; 0.5 mg, 2 hours of growth): 6.04 | pH (acidification of milk) ([6]; 0.5 mg, 4 hours of growth): 4.50 | pH (acidification of milk) ([6]; 0.5 mg, 6 hours of growth): 4.13 | pH (acidification of milk) ([6]; 0.5 mg, 8 hours of growth): 4.00 | pH (acidification of milk) ([6]; 0.5 mg, 24 hours of growth): 3.51 | pH (acidification of milk) ([6]; 1 mg, 0 hours of growth): 6.67 | pH (acidification of milk) ([6]; 1 mg, 2 hours of growth): 6.20 | pH (acidification of milk) ([6]; 1 mg, 4 hours of growth): 4.53 | pH (acidification of milk) ([6]; 1 mg, 6 hours of growth): 4.11 | pH (acidification of milk) ([6]; 1 mg, 8 hours of growth): 3.94 | pH (acidification of milk) ([6]; 1 mg, 24 hours of growth): 3.48 | pH (acidification of milk) ([6]; 2 mg, 0 hours of growth): 6.72 | pH (acidification of milk) ([6]; 2 mg, 2 hours of growth): 6.33 | pH (acidification of milk) ([6]; 2 mg, 4 hours of growth): 4.74 | pH (acidification of milk) ([6]; 2 mg, 6 hours of growth): 4.25 | pH (acidification of milk) ([6]; 2 mg, 8 hours of growth): 4.06 | pH (acidification of milk) ([6]; 2 mg, 24 hours of growth): 3.57 | pH (acidification of milk) (Lactobacillus bulgaricus; 0.1 mg, 0 hours of growth): 6.48 | pH (acidification of milk) (Lactobacillus bulgaricus; 0.1 mg, 2 hours of growth): 5.73 | pH (acidification of milk) (Lactobacillus bulgaricus; 0.1 mg, 4 hours of growth): 4.29 | pH (acidification of milk) (Lactobacillus bulgaricus; 0.1 mg, 6 hours of growth): 3.89 | pH (acidification of milk) (Lactobacillus bulgaricus; 0.1 mg, 8 hours of growth): 3.72 | pH (acidification of milk) (Lactobacillus bulgaricus; 0.1 mg, 24 hours of growth): 3.51 | pH (acidification of milk) (Lactobacillus bulgaricus; 0.5 mg, 0 hours of growth): 6.53 | pH (acidification of milk) (Lactobacillus bulgaricus; 0.5 mg, 2 hours of growth): 5.36 | pH (acidification of milk) (Lactobacillus bulgaricus; 0.5 mg, 4 hours of growth): 4.21 | pH (acidification of milk) (Lactobacillus bulgaricus; 0.5 mg, 6 hours of growth): 3.85 | pH (acidification of milk) (Lactobacillus bulgaricus; 0.5 mg, 8 hours of growth): 3.72 | pH (acidification of milk) (Lactobacillus bulgaricus; 0.5 mg, 24 hours of growth): 3.47 | pH (acidification of milk) (Lactobacillus bulgaricus; 1 mg, 0 hours of growth): 6.56 | pH (acidification of milk) (Lactobacillus bulgaricus; 1 mg, 2 hours of growth): 5.83 | pH (acidification of milk) (Lactobacillus bulgaricus; 1 mg, 4 hours of growth): 4.34 | pH (acidification of milk) (Lactobacillus bulgaricus; 1 mg, 6 hours of growth): 3.94 | pH (acidification of milk) (Lactobacillus bulgaricus; 1 mg, 8 hours of growth): 3.75 | pH (acidification of milk) (Lactobacillus bulgaricus; 1 mg, 24 hours of growth): 3.50 | pH (acidification of milk) (Lactobacillus bulgaricus; 2 mg, 0 hours of growth): 6.57 | pH (acidification of milk) (Lactobacillus bulgaricus; 2 mg, 2 hours of growth): 5.69 | pH (acidification of milk) (Lactobacillus bulgaricus; 2 mg, 4 hours of growth): 4.34 | pH (acidification of milk) (Lactobacillus bulgaricus; 2 mg, 6 hours of growth): 3.92 | pH (acidification of milk) (Lactobacillus bulgaricus; 2 mg, 8 hours of growth): 3.75 | pH (acidification of milk) (Lactobacillus bulgaricus; 2 mg, 24 hours of growth): 3.49 | hydrophobicity [2]: highly hydrophobic | solubility in water [2]: poorly soluble in water
